Results: patent US20240279201A1, “DUAL WNT SIGNALING PATHWAY INHIBITORS AND AMPK ACTIVATORS FOR TREATMENTS OF DISEASE” (priority 2021, published 2024)

Legend:
[1] = system: Wnt/β-Catenin signaling pathway; assay: Wnt signaling luciferase (TOPflash) reporter gene assay; format: cell-based; settings: for IC50: luciferase reporter gene assay, mean of three independent experiments, read-out: IC50 (nM) to inhibit the Wnt signaling activity
Description: A dual-luciferase gene reporter assay was used to test inhibitory activities of new compounds on Wnt signaling. […] Therefore, the effects of new compounds on AMPK was examined. […]

[2] = Cytotoxicity (CC50) during the luciferase gene reporter assay; format: cell-based; settings: human, HEK293 cells; short treatment duration of the luciferase gene reporter assay

CC(C)c1c(C(=O)Nc2nc3ccccc3s2)cnn1-c1ccccc1 [YA6144, N-(Benzo[d]thiazol-2-yl)-5-isopropyl-1-phenyl-1H-pyrazole-4-carboxamide]
IC50 [1]: > 1000 nM
CC50 [2]: > 92 µM

Cc1ccccc1-n1nnc(C(=O)Nc2ccc3cccc(Br)c3n2)c1C [YA6146, N-(8-Bromoquinolin-2-yl)-5-methyl-1-(o-tolyl)-1H-1,2,3-triazole-4-carboxamide]
IC50 [1]: > 1000 nM
CC50 [2]: > 92 µM

Cc1ccccc1-n1nnc(C(=O)Nc2ccc3ncccc3n2)c1C [YA6147, 5-Methyl-N-(1,5-naphthyridin-2-yl)-1-(o-tolyl)-1H-1,2,3-triazole-4-carboxamide]
IC50 [1]: > 1000 nM
CC50 [2]: > 92 µM

Cc1ccccc1-n1nnc(C(=O)Nc2cc(Br)c3ccccc3n2)c1C [YA6150, N-(4-bromoquinolin-2-yl)-5-methyl-1-(o-tolyl)-1H-1,2,3-triazole-4-carboxamide]
IC50 [1]: > 1000 nM
CC50 [2]: > 92 µM

Cc1c(C(=O)Nc2ncc(-c3ccccc3)s2)cnn1-c1ccccc1Br [YA6152, 1-(2-Bromophenyl)-5-methyl-N-(5-phenylthiazol-2-yl)-1H-pyrazole-4-carboxamide]
IC50 [1]: 220 nM
CC50 [2]: > 92 µM

Cc1ccccc1-n1nnc(C(=O)Nc2cc(CN3CCN(C(=O)OC(C)(C)C)CC3)c3ccccc3n2)c1C [YA6159, tert-Butyl 4-((2-(5-methyl-1-(o-tolyl)-1H-1,2,3-triazole-4-carboxamido)quinolin-4-yl)methyl)piperazine-1-carboxylate]
IC50 [1]: > 1000 nM
CC50 [2]: > 92 µM

Cc1ccccc1-n1nnc(C(=O)Nc2ccc3cccc(CN4CCN(C(=O)OC(C)(C)C)CC4)c3n2)c1C [YA6160, tert-Butyl 4-((2-(5-methyl-1-(o-tolyl)-1H-1,2,3-triazole-4-carboxamido)quinolin-8-yl)methyl)piperazine-1-carboxylate]
IC50 [1]: > 1000 nM
CC50 [2]: > 92 µM

Cc1ccccc1-n1nnc(C(=O)Nc2cnc3ccccc3c2)c1C [YA6161, 5-Methyl-N-(quinolin-3-yl)-1-(o-tolyl)-1H-1,2,3-triazole-4-carboxamide]
IC50 [1]: > 1000 nM
CC50 [2]: > 92 µM

Cc1ccccc1-n1nnc(C(=O)Nc2ccc3cccnc3c2)c1C [YA6162, 5-Methyl-N-(quinolin-7-yl)-1-(o-tolyl)-1H-1,2,3-triazole-4-carboxamide]
IC50 [1]: > 1000 nM
CC50 [2]: > 92 µM

Cc1ccccc1-n1nnc(C(=O)Nc2cc3ccccc3cn2)c1C [YA6164, N-(Isoquinolin-3-yl)-5-methyl-1-(o-tolyl)-1H-1,2,3-triazole-4-carboxamide]
IC50 [1]: > 1000 nM
CC50 [2]: > 92 µM

Cc1ccccc1-n1nnc(C(=O)Nc2ccc3c(Br)cccc3n2)c1C [YA6167, N-(5-Bromoquinolin-2-yl)-5-methyl-1-(o-tolyl)-1H-1,2,3-triazole-4-carboxamide]
IC50 [1]: > 1000 nM
CC50 [2]: > 92 µM

O=C(Nc1nc2ccccc2s1)c1nnn(-c2ccccc2F)c1C(F)(F)F [YA6168, N-(Benzo[d]thiazol-2-yl)-1-(2-fluorophenyl)-5-(trifluoromethyl)-1H-1,2,3-triazole-4-carboxamide]
inhibition at 1 µM [1]: 91%
IC50 [1]: 3.3 nM
CC50 [2]: > 92 µM

O=C(Nc1ccc2ccccc2n1)c1nnn(-c2ccccc2)n1 [YA6171, 2-Phenyl-N-(quinolin-2-yl)-2H-tetrazole-5-carboxamide]
IC50 [1]: > 1000 nM
CC50 [2]: > 92 µM

CC(C)c1c(C(=O)Nc2nc3ccc(F)cc3s2)nnn1-c1ccccc1F [YA6172, N-(6-Fluorobenzo[d]thiazol-2-yl)-1-(2-fluorophenyl)-5-isopropyl-1H-1,2,3-triazole-4-carboxamide]
inhibition at 1 µM [1]: 98%
IC50 [1]: 7.6 nM
CC50 [2]: > 92 µM

CC(C)(C)c1c(C(=O)Nc2nc3ccc(F)cc3s2)nnn1-c1ccccc1F [YA6174, 5-(Tert-butyl)-N-(6-fluorobenzo[d]thiazol-2-yl)-1-(2-fluorophenyl)-1H-1,2,3-triazole-4-carboxamide]
inhibition at 1 µM [1]: 40%
IC50 [1]: > 1000 nM
CC50 [2]: > 92 µM

O=C(Nc1nc2ccc(F)cc2s1)c1nnn(-c2ccccc2F)c1C(F)(F)F [YA6175, N-(6-Fluorobenzo[d]thiazol-2-yl)-1-(2-fluorophenyl)-5-(trifluoromethyl)-1H-1,2,3-triazole-4-carboxamide]
inhibition at 1 µM [1]: 85%
IC50 [1]: 17 nM
CC50 [2]: > 92 µM

CC(C)(C)c1c(C(=O)Nc2nc3ccccc3s2)nnn1-c1ccccc1F [YA6176, N-(Benzo[d]thiazol-2-yl)-5-(tert-butyl)-1-(2-fluorophenyl)-1H-1,2,3-triazole-4-carboxamide]
inhibition at 1 µM [1]: 58%
IC50 [1]: 251 nM
CC50 [2]: > 92 µM

O=C(Nc1cnc2ccccc2n1)c1nnn(-c2ccccc2)n1 [YA6177, 2-Phenyl-N-(quinoxalin-2-yl)-2H-tetrazole-5-carboxamide]
IC50 [1]: > 1000 nM
CC50 [2]: > 92 µM

Cc1ccccc1-n1ncc(C(=O)Nc2nc3ccccc3s2)c1C [YA6179, N-(Benzo[d]thiazol-2-yl)-5-methyl-1-(o-tolyl)-1H-pyrazole-4-carboxamide]
IC50 [1]: 1.4 nM
CC50 [2]: > 92 µM

Cc1ccccc1-n1ncc(C(=O)Nc2nc(-c3ccccc3)cs2)c1C [YA7015, 5-Methyl-N-(4-phenylthiazol-2-yl)-1-(o-tolyl)-1H-pyrazole-4-carboxamide]
IC50 [1]: > 1000 nM
CC50 [2]: > 92 µM

Cc1ccccc1-n1ncc(C(=O)Nc2ccc(-c3ccccc3)cc2)c1C [YA7016, N-([1,1′-biphenyl]-4-yl)-5-methyl-1-(o-tolyl)-1H-pyrazole-4-carboxamide]
IC50 [1]: > 1000 nM
CC50 [2]: > 92 µM

Cc1ccccc1-n1ncc(C(=O)Nc2ccc(-c3ccccc3)cn2)c1C [YA7018, 5-Methyl-N-(5-phenylpyridin-2-yl)-1-(o-tolyl)-1H-pyrazole-4-carboxamide]
IC50 [1]: > 1000 nM
CC50 [2]: > 92 µM

Cc1ccccc1-n1ncc(C(=O)Nc2ncc(-c3ccccc3)s2)c1C [YA7019, 5-Methyl-N-(5-phenylthiazol-2-yl)-1-(o-tolyl)-1H-pyrazole-4-carboxamide]
IC50 [1]: > 1000 nM
CC50 [2]: > 92 µM

COc1ccccc1-n1ncc(C(=O)Nc2nc3ccccc3s2)c1C [YA7020, N-(Benzo[d]thiazol-2-yl)-1-(2-methoxyphenyl)-5-methyl-1H-pyrazole-4-carboxamide]
IC50 [1]: 9.5 nM
CC50 [2]: > 92 µM

Cc1ccccc1-n1nnc(C(=O)Nc2ccc3ccncc3c2)c1C [YA61691, N-(Isoquinolin-7-yl)-5-methyl-1-(o-tolyl)-1H-1,2,3-triazole-4-carboxamide]
IC50 [1]: > 1000 nM
CC50 [2]: > 92 µM

Cc1ccccc1-n1nnc(C(=O)Nc2ccc3cnccc3c2)c1C [YA61692, N-(Isoquinolin-6-yl)-5-methyl-1-(o-tolyl)-1H-1,2,3-triazole-4-carboxamide]
IC50 [1]: > 1000 nM
CC50 [2]: > 92 µM

Cc1ccccc1-n1nnc(C(=O)Nc2cccc3ncccc23)c1C [YA61693, 5-Methyl-N-(quinolin-5-yl)-1-(o-tolyl)-1H-1,2,3-triazole-4-carboxamide]
IC50 [1]: > 1000 nM
CC50 [2]: > 92 µM

Cc1ccccc1-n1nnc(C(=O)Nc2ccc3ccccc3n2)n1 [YA70031, N-(Quinolin-2-yl)-2-(o-tolyl)-2H-tetrazole-5-carboxamide]
IC50 [1]: > 1000 nM
CC50 [2]: > 92 µM

O=C(Nc1ccc2ccccc2n1)c1nnn(-c2ccccc2F)n1 [YA70032, 2-(2-Fluorophenyl)-N-(quinolin-2-yl)-2H-tetrazole-5-carboxamide]
IC50 [1]: > 1000 nM
CC50 [2]: > 92 µM
